Experimental data as given in patent publication US20050282159A1, “Rpob gene of streptomyces, primer specific to streptomyces, and identification method of streptomyces having rifampin resistance or sensitivity by using the same” (priority 2001, published 2005).

Columns and labels:
S. humidus KCCM 40647 = test: rifampin genotype by rpoB nucleotide sequence analysis
Procedure: The primer sets of SEQ ID NOs: 1 and 2 were used to amplify rpoB genes of 60 strains, and nucleotides of the […] products were analyzed with an automatic sequencer. SRPOF1 as a forward primer and SRPOR1 as a backward primer were used.
FIG. 8 is an electropherogram obtained by amplifying 306-bp rpoB gene fragment with the SRPOF1 and SRPOR1 primer set and automatically sequencing with an SRPOF1 primer.

S. albulus KCTC 9668 = test: rifampin-sensitive test on Bennet solid media; assay type: cell-based; set-up: key: “(+)” indicates a genotype with rifampin-resistance; “(−)” indicates a genotype with rifampin-susceptibility; settings: TCG (TCC) genotype, 25 ug/ml rifampin, 72 hr
Procedure: (§1) The 47 strains were respectively cultured at 28° C. for 72 hr in Bennet liquid media. The culture solution was then inoculated on Bennet solid media (yeast extract 1 g/L, Beef extract 1 g/L, Tryptone 2 g/L, Glycerol 10 g/L, Agar 15 g/L) containing 25 ug/ml rifampin, and after incubation for 72 hr, rifampin-resistance was tested.

S. aminophilus KCTC 9673 = test: rifampin-sensitive test on Bennet solid media; assay type: cell-based; set-up: key: “(+)” indicates a genotype with rifampin-resistance; “(−)” indicates a genotype with rifampin-susceptibility; settings: AAC genotype, 25 ug/ml rifampin, 72 hr
Procedure: as §1

S. chartreuses KCTC 9704 = test: rifampin-sensitive test on Bennet solid media; assay type: cell-based; set-up: key: “(+)” indicates a genotype with rifampin-resistance; “(−)” indicates a genotype with rifampin-susceptibility; settings: TCG (TCC) genotype, 25 ug/ml rifampin, 72 hr
Procedure: as §1

S. actuosus KCTC 9112 = test: rifampin-sensitive test on Bennet solid media; assay type: cell-based; set-up: key: “(+)” indicates a genotype with rifampin-resistance; “(−)” indicates a genotype with rifampin-susceptibility; settings: TCG (TCC) genotype, 25 ug/ml rifampin, 72 hr
Procedure: as §1

[1] = tested on: S. cinereoruber KCTC 9707; test: rifampin-sensitive test on Bennet solid media; assay type: cell-based; set-up: key: “(+)” indicates a genotype with rifampin-resistance; “(−)” indicates a genotype with rifampin-susceptibility; settings: TCG (TCC) genotype, 25 ug/ml rifampin, 72 hr
Procedure: as §1

S. bikiniensis KCTC 9172 = test: rifampin-sensitive test on Bennet solid media; assay type: cell-based; set-up: key: “(+)” indicates a genotype with rifampin-resistance; “(−)” indicates a genotype with rifampin-susceptibility; settings: TCG (TCC) genotype, 25 ug/ml rifampin, 72 hr
Procedure: as §1

S. plicatus KCTC 9040 = test: rifampin-sensitive test on Bennet solid media; assay type: cell-based; set-up: key: “(+)” indicates a genotype with rifampin-resistance; “(−)” indicates a genotype with rifampin-susceptibility; settings: AAC genotype, 25 ug/ml rifampin, 72 hr
Procedure: as §1

S. abikoensis KCTC 9662 = test: rifampin-sensitive test on Bennet solid media; assay type: cell-based; set-up: key: “(+)” indicates a genotype with rifampin-resistance; “(−)” indicates a genotype with rifampin-susceptibility; settings: TCG (TCC) genotype, 25 ug/ml rifampin, 72 hr
Procedure: as §1

S. durhamensis KCTC 9723 = test: rifampin-sensitive test on Bennet solid media; assay type: cell-based; set-up: key: “(+)” indicates a genotype with rifampin-resistance; “(−)” indicates a genotype with rifampin-susceptibility; settings: AAC genotype, 25 ug/ml rifampin, 72 hr
Procedure: as §1

S. almquistii KCTC 9751 = test: rifampin-sensitive test on Bennet solid media; assay type: cell-based; set-up: key: “(+)” indicates a genotype with rifampin-resistance; “(−)” indicates a genotype with rifampin-susceptibility; settings: TCG (TCC) genotype, 25 ug/ml rifampin, 72 hr
Procedure: as §1

S. acrimycini KCTC 9679 = test: rifampin-sensitive test on Bennet solid media; assay type: cell-based; set-up: key: “(+)” indicates a genotype with rifampin-resistance; “(−)” indicates a genotype with rifampin-susceptibility; settings: AAC genotype, 25 ug/ml rifampin, 72 hr
Procedure: as §1

[2] = tested on: S. antimycoticus KCTC 9694; test: rifampin-sensitive test on Bennet solid media; assay type: cell-based; set-up: key: “(+)” indicates a genotype with rifampin-resistance; “(−)” indicates a genotype with rifampin-susceptibility; settings: TCG (TCC) genotype, 25 ug/ml rifampin, 72 hr
Procedure: as §1

S. argenteolus KCTC 9695 = test: rifampin-sensitive test on Bennet solid media; assay type: cell-based; set-up: key: “(+)” indicates a genotype with rifampin-resistance; “(−)” indicates a genotype with rifampin-susceptibility; settings: TCG (TCC) genotype, 25 ug/ml rifampin, 72 hr
Procedure: as §1

[3] = tested on: S. chattanoogensis KCTC 1087; test: rifampin-sensitive test on Bennet solid media; assay type: cell-based; set-up: key: “(+)” indicates a genotype with rifampin-resistance; “(−)” indicates a genotype with rifampin-susceptibility; settings: TCG (TCC) genotype, 25 ug/ml rifampin, 72 hr
Procedure: as §1

[4] = tested on: S. griseus griseus KCTC 9080; test: rifampin-sensitive test on Bennet solid media; assay type: cell-based; set-up: key: “(+)” indicates a genotype with rifampin-resistance; “(−)” indicates a genotype with rifampin-susceptibility; settings: AAC genotype, 25 ug/ml rifampin, 72 hr
Procedure: as §1

[5] = tested on: S. cinnamonensis KCTC 9708; test: rifampin-sensitive test on Bennet solid media; assay type: cell-based; set-up: key: “(+)” indicates a genotype with rifampin-resistance; “(−)” indicates a genotype with rifampin-susceptibility; settings: TCG (TCC) genotype, 25 ug/ml rifampin, 72 hr
Procedure: as §1

S. ederensis KCTC 9726 = test: rifampin-sensitive test on Bennet solid media; assay type: cell-based; set-up: key: “(+)” indicates a genotype with rifampin-resistance; “(−)” indicates a genotype with rifampin-susceptibility; settings: AAC genotype, 25 ug/ml rifampin, 72 hr
Procedure: as §1

S. alboniger KCTC 9014 = test: rifampin-sensitive test on Bennet solid media; assay type: cell-based; set-up: key: “(+)” indicates a genotype with rifampin-resistance; “(−)” indicates a genotype with rifampin-susceptibility; settings: TCG (TCC) genotype, 25 ug/ml rifampin, 72 hr
Procedure: as §1

S. flaveolus KCTC 9022 = test: rifampin-sensitive test on Bennet solid media; assay type: cell-based; set-up: key: “(+)” indicates a genotype with rifampin-resistance; “(−)” indicates a genotype with rifampin-susceptibility; settings: AAC genotype, 25 ug/ml rifampin, 72 hr
Procedure: as §1

[6] = tested on: S. cacoi asoensis KCTC 9700; test: rifampin-sensitive test on Bennet solid media; assay type: cell-based; set-up: key: “(+)” indicates a genotype with rifampin-resistance; “(−)” indicates a genotype with rifampin-susceptibility; settings: TCG (TCC) genotype, 25 ug/ml rifampin, 72 hr
Procedure: as §1

[7] = tested on: S. alanosinicus KCTC 9683; test: rifampin-sensitive test on Bennet solid media; assay type: cell-based; set-up: key: “(+)” indicates a genotype with rifampin-resistance; “(−)” indicates a genotype with rifampin-susceptibility; settings: AAC genotype, 25 ug/ml rifampin, 72 hr
Procedure: as §1

[8] = tested on: S. cuspidosporus KCTC 9718; test: rifampin-sensitive test on Bennet solid media; assay type: cell-based; set-up: key: “(+)” indicates a genotype with rifampin-resistance; “(−)” indicates a genotype with rifampin-susceptibility; settings: AAC genotype, 25 ug/ml rifampin, 72 hr
Procedure: as §1

S. albofaciens KCTC 9747 = test: rifampin-sensitive test on Bennet solid media; assay type: cell-based; set-up: key: “(+)” indicates a genotype with rifampin-resistance; “(−)” indicates a genotype with rifampin-susceptibility; settings: TCG (TCC) genotype, 25 ug/ml rifampin, 72 hr
Procedure: as §1

S. avidinii KCTC 9757 = test: rifampin-sensitive test on Bennet solid media; assay type: cell-based; set-up: key: “(+)” indicates a genotype with rifampin-resistance; “(−)” indicates a genotype with rifampin-susceptibility; settings: AAC genotype, 25 ug/ml rifampin, 72 hr
Procedure: as §1

CO[C@H]1/C=C/O[C@@]2(C)Oc3c(C)c(O)c4c(O)c(c(/C=N/N5CCN(C)CC5)c(O)c4c3C2=O)NC(=O)/C(C)=C\C=C\[C@H](C)[C@H](O)[C@@H](C)[C@@H](O)[C@@H](C)[C@H](OC(C)=O)[C@@H]1C [rifampin]
rifampin resistance or sensitivity of the strain (S. humidus KCCM 40647; S. humidus (KCCM 40647), TCG genotype, identical to the known sensitivity results): rifampin-sensitive strains | genotype (rifampin-resistant or -sensitive strain) (S. humidus KCCM 40647; S. humidus KCCM 40647, TCG (TCC) genotype): − | genotype (rifampin-resistance or susceptibility) (S. albulus KCTC 9668): − | genotype (rifampin-resistance or susceptibility) (S. aminophilus KCTC 9673): + | genotype (rifampin-resistance or susceptibility) (S. chartreuses KCTC 9704): − | genotype (rifampin-resistance or susceptibility) (S. actuosus KCTC 9112): − | genotype (rifampin-resistance or susceptibility) [1]: − | genotype (rifampin-resistance or susceptibility) (S. bikiniensis KCTC 9172): − | genotype (rifampin-resistance or susceptibility) (S. plicatus KCTC 9040): + | genotype (rifampin-resistance or susceptibility) (S. abikoensis KCTC 9662): − | genotype (rifampin-resistance or susceptibility) (S. durhamensis KCTC 9723): + | genotype (rifampin-resistance or susceptibility) (S. almquistii KCTC 9751): − | genotype (rifampin-resistance or susceptibility) (S. acrimycini KCTC 9679): + | genotype (rifampin-resistance or susceptibility) [2]: − | genotype (rifampin-resistance or susceptibility) (S. argenteolus KCTC 9695): − | genotype (rifampin-resistance or susceptibility) [3]: − | genotype (rifampin-resistance or susceptibility) [4]: + | genotype (rifampin-resistance or susceptibility) [5]: − | genotype (rifampin-resistance or susceptibility) (S. ederensis KCTC 9726): + | genotype (rifampin-resistance or susceptibility) (S. alboniger KCTC 9014): − | genotype (rifampin-resistance or susceptibility) (S. flaveolus KCTC 9022): + | genotype (rifampin-resistance or susceptibility) [6]: − | genotype (rifampin-resistance or susceptibility) [7]: + | genotype (rifampin-resistance or susceptibility) [8]: + | genotype (rifampin-resistance or susceptibility) (S. albofaciens KCTC 9747): − | genotype (rifampin-resistance or susceptibility) (S. avidinii KCTC 9757): +
